Experimental data reported in paper PMC9180621, “Preparation of Novel Pyrazolo[4,3-e]tetrazolo[1,5-b][1,2,4]triazine Sulfonamides and Their Experimental and Computational Biological Studies” (International Journal of Molecular Sciences, 2022).
“And” between values parts separate entries of the source, which are not always exact repeats. Equal values may be shown once.

How the values were obtained:
BxPC-3 cells [1] = assay: Annexin V-FITC/propidium iodide flow cytometry, apoptosis; format: cell-based, human; conditions: IC50 concentration, Annexin V-FITC, ± SD
Experimental: (§1) Data are presented as mean percentage of apoptotic cells (early and late apoptotic) ± SD values. The differences between the experimental samples and vehicle control were evaluated by the ANOVA test followed by Tukey’s test (p < 0.05). Experiments were performed in triplicate. For flow cytometry analysis with Annexin V-FITC staining, the approximate number of analyzed cells was (N = 1 × 10^4), contrasting with the dual acridine orange/ethidium bromide (AO/EB) fluorescent staining (N = 200).
(§2) The Annexin V-FITC Apoptosis Detection Kit was used to estimate the apoptosis induction following 24 and 48 h incubation with the tested MM-compounds. During apoptosis, phosphatidylserine is transformed from the inner cell membrane to the cell surface, which can be detected by the annexin-FITC complex. The addition of propidium iodide to the reaction mixture allows the assessment of cell membrane integrity. Using flow cytometry analysis, four subpopulations of cells can be distinguished: alive (non-stained), necrotic (propidium iodide stained), early apoptotic (annexin V stained cells), or late-apoptotic cells (propidium iodide and annexin V stained). BxPC-3 and PC-3 cells were seeded at appropriate density on a 6-well plate (Table 9).
(§3) The experimental design included vehicle control (final solvent concentration was < 0.5% v/v DMSO), and cells treated with 2 µM SN-38 (active metabolite of irinotecan) used as a positive compensation control. Cells were left for incubation for another 24 or 48 h (37 °C; 5% CO2). After exposure, cells were trypsinized and transferred to cytometric tubes, left for 40 min, and centrifuged at 1400 rpm for 10 min at 4 °C. Afterward, the supernatant was removed, and the precipitate was diluted in 1 mL of PBS. The rest of the procedure was performed according to the manufacturer’s instructions. The results were obtained from three independent experiments.

PC-3 cells [2] = assay: as above; format: cell-based, human; conditions: PC-3, 48 h incubation, Annexin V-FITC, ± SD, control 8.37 ± 1.06%
Experimental: as §1, §2, §3

BxPC-3 cells [3] = assay: MitoTracker Red, mitochondria membrane potential; format: cell-based, human
Experimental: (§4) The fitness of the mitochondria and changes in MMP were assessed using MitoTracker Red. Data for experimental groups were presented as mean percentage of control group fluorescence intensity ± SD value (Figure 11, Table 2). Mitotracker Red is deposited in the mitochondrial matrix in response to changes in the inner transmembrane potential of the mitochondria. The intensity of fluorescence reflects the fitness of the mitochondria and alters with changes in MMP [91]. BxPC-3 and PC-3 cells were seeded at appropriate density on a 96-well plates (Table 9). […] After appropriate incubation time, cells were incubated with MitoTracker Red (0.1 µM/200 µL PBS/well) for 40 min. Afterward, MitoTracker Red solution was removed from the wells and PBS (200 µL/well) was added. Fluorescence was read at an […] of 581/644 nm using the SpectraMax® i3x Multi-Mode Detection Platform.

PC-3 cells [4] = assay: MitoTracker Red, mitochondria membrane potential; format: cell-based, human
Experimental: as §4

L929 cells = assay: MTT assay, cell viability; format: cell-based; conditions: L929 normal mouse fibroblasts, 72 h incubation, ± SD
Experimental: (§5) A statistical program (Graphpad Prism 7) was used to analyze obtained data (MTT test). The dose–response analysis was performed to estimate the inhibitory concentration (IC50) of the tested compounds. The IC50 value is defined as a concentration of the tested compound that leads to a reduction in cell pool viability by 50% compared to the negative control (accepted as 100%). % cell viability=Absorbance value of treated cells−Absorbance value of blank/Absorbance value of untreated cells−Absorbance value of blank×100%
(§6) To estimate cell viability following 72 h incubation with the tested MM-compounds (MM134, MM136, MM137, and MM139), the MTT test was used according to the PN-EN ISO 10993-5. It is a quantitative method based on the tetrazolium yellow dye MTT [3(4,5-dimethyl-2-thiazolyl)-2,5-diphenyl-2H-tetrazolium bromide], which is converted by living cells to a purple product, formazan, the concentration of which was measured colorimetrically. The MTT assay was performed according to the procedure described by Mosmann with modifications. At a density of approximately 8 × 10^3 cells per 100 µL/well, 96-well plates were seeded. Following the given incubation period in controlled conditions (37 °C; 5% CO2), cells were exposed to different concentrations of tested compounds in DMSO (range 0.05–3 µM) in a volume of 100 µL medium per well. Final solvent concentration of DMSO was < 0.5% v/v. The experimental design included vehicle controls and blanks (wells without cells).
(§7) After 72 h of incubation of cells with tested MM-compounds, 20 µL of MTT tetrazolium salt (5 mg/mL in PBS) was added to each well, and plates were incubated once again in a humidified atmosphere for 3 h (37 °C; 5% CO2). Following the incubation time, the solutions were removed and 100 µL of DMSO was added to dissolve the formazan complexes. Subsequently, a spectrophotometer (microplate reader Power Wave XS BioTek Instruments, Inc., Winooski, VT, USA) reading was performed at 570 nm. The experiments were performed in duplicates.

WI-38 cells = assay: MTT assay, cell viability; format: cell-based; conditions: WI-38 normal human fibroblasts, 72 h incubation, ± SD
Experimental: as §5, §6, §7

BxPC-3 cells [5] = assay: MTT assay, cell viability; format: cell-based; conditions: Homo sapiens, BxPC-3, 72 h incubation, ± SD
Experimental: as §5, §6, §7

PC-3 cells [6] = assay: MTT assay, cell viability; format: cell-based, human; conditions: for IC50: Homo sapiens, PC-3, 72 h incubation, MTT, ± SD
Experimental: as §5, §6, §7

[7] = BxPC-3, 24 h incubation, control 10.3 ± 2.09%
[8] = BxPC-3, 48 h incubation, control 8.3 ± 1.13%
[9] = BxPC-3, 24 h incubation, 0.5IC50, ± SD
[10] = BxPC-3, 24 h incubation, 2xIC50, ± SD
[11] = BxPC-3, 24 h incubation, IC50, ± SD
[12] = BxPC-3, 48 h incubation, 0.5IC50, ± SD
[13] = BxPC-3, 48 h incubation, 2xIC50, ± SD
[14] = BxPC-3, 48 h incubation, IC50, ± SD
[15] = PC-3, 24 h incubation, 0.5IC50, ± SD
[16] = PC-3, 24 h incubation, 2xIC50, ± SD
[17] = PC-3, 24 h incubation, IC50, ± SD
[18] = PC-3, 48 h incubation, 0.5IC50, ± SD
[19] = PC-3, 48 h incubation, 2xIC50, ± SD
[20] = PC-3, 48 h incubation, IC50, ± SD

IC50 (BxPC-3 cells [5]) [µM]	IC50 (PC-3 cells [6]) [µM]	SMILES	mean percentage of apoptotic cells (early and late apoptotic) (BxPC-3 cells [1]; [7]) [%]	mean percentage of apoptotic cells (early and late apoptotic) (BxPC-3 cells [1]; [8]) [%]	mean percentage of apoptotic cells (early and late apoptotic) (PC-3 cells [2]; 2xIC50 concentration) [%]	mean percentage of control group fluorescence intensity (MMP) (BxPC-3 cells [3]; [9]) [%]	mean percentage of control group fluorescence intensity (MMP) (BxPC-3 cells [3]; [10]) [%]	mean percentage of control group fluorescence intensity (MMP) (BxPC-3 cells [3]; [11]) [%]	mean percentage of control group fluorescence intensity (MMP) (BxPC-3 cells [3]; [12]) [%]	mean percentage of control group fluorescence intensity (MMP) (BxPC-3 cells [3]; [13]) [%]	mean percentage of control group fluorescence intensity (MMP) (BxPC-3 cells [3]; [14]) [%]	mean percentage of control group fluorescence intensity (MMP) (PC-3 cells [4]; [15]) [%]	mean percentage of control group fluorescence intensity (MMP) (PC-3 cells [4]; [16])	mean percentage of control group fluorescence intensity (MMP) (PC-3 cells [4]; [17]) [%]	mean percentage of control group fluorescence intensity (MMP) (PC-3 cells [4]; [18]) [%]	mean percentage of control group fluorescence intensity (MMP) (PC-3 cells [4]; [19]) [%]	mean percentage of control group fluorescence intensity (MMP) (PC-3 cells [4]; [20]) [%]	IC50 (L929 cells) [µM]	IC50 (WI-38 cells) [µM]	also measured
0.32 ± 0.1	0.16 ± 0.02	Cc1nn(-c2ccc(S(=O)(=O)NCCN3CCOCC3)cc2)c2nn3nnnc3nc12 [MM134]	65.3 ± 9.1	86.9 ± 1.16	20.37 ± 2.5	88.19 ± 13.62	78.31 ± 14.34	81.23 ± 11.94	79.98 ± 11.47	68.95 ± 7.78	66.04 ± 16.7	100.35 ± 1.57	82.34 ± 2.13%	82.5 ± 2.21	82.1 ± 14.45	64.56 ± 3.33	80.26 ± 13.44	0.58 ± 0.005	0.65 ± 0.07	times higher cytotoxic activity in PC-3 compared to normal human fibroblasts (WI-38) (PC-3 cells [6]; ratio of MTT IC50, PC-3 vs WI-38): 4 times
0.16 ± 0.04	0.11 ± 0.007	Cc1nn(-c2ccc(S(=O)(=O)N3CCN(C)CC3)cc2)c2nn3nnnc3nc12 [MM137]	18.9 ± 2.95	40.8 ± 1.36	38.93 ± 4	89.34 ± 5.91	79.22 ± 2.22	79.5 ± 3.34	84.62 ± 9.01	73.8 ± 2.58	79.8 ± 6.76	96.26 ± 2.83	82.5 ± 7.99%	87.9 ± 2.71	78.26 ± 2.62	64.19 ± 8.72	75.49 ± 5.55	0.18 ± 0.0008	0.27 ± 0.04	mean percentage of apoptotic cells (early and late apoptotic) (PC-3 cells [2]; IC50 concentration): 22.57 ± 3.18%
0.33 ± 0.14	0.17 ± 0.003	Cc1nn(-c2ccc(S(=O)(=O)N3CCCCC3)cc2)c2nn3nnnc3nc12 [MM139]	59.6 ± 7.42	85.4 ± 6.25	15 ± 2.42	81.28 ± 14.44	64.23 ± 6.08	66.73 ± 3.72	76.9 ± 6.40	65.95 ± 12.53	60.35 ± 0.91	89.2 ± 6.28	78.14 ± 6.56% and 78.14 ± 6.55%	87.28 ± 15.8	78.91 ± 15.21	61.28 ± 9.16	65.93 ± 19.56	0.26 ± 0.02	0.54 ± 0.06	–
